The values below come from patent US9139485B2, “Plant treatment agent” (UNIVERSITI PUTRA MALAYSIA, priority 2011, dated 2015).

The test system of series [1] is Hybrid no. 5 variety (Zea mays L.). Briefly: Greenhouse pot experiment: dry weight, N, P, K uptake and use efficiency of maize plant. The class given is in vivo. Particulars: 56 days after planting. The protocol: A pot experiment was conducted in a greenhouse of Universiti Putra Malaysia Bintulu Sarawak Campus, Malaysia using randomized complete block design (RCBD) with three replications. Each pot size was 22×28 cm. Each was filled with 10 kg soil (based on bulk density of the soil). Hybrid no. 5 variety (Zea mays L.) was used as the test crop. Its N, P, and K requirement were 60 kg N, 60 kg P2O5 and 40 kg K2O (130 kg ha^−1 urea: 130 kg ha^−1 TSP: 67 kg ha^−1 KCl). The fertilizer requirement was scaled down to per pot basis equivalent to 2.02 g of urea, […]. The volume of water used for each pot was based on field capacity (70%). The three treatments devised for this experiment were as follows: • i. No fertilizer (T0) • ii. 2.02 g urea (T1) • iii. 2.02 g urea+7 L peat soil water (T2)
All treatments were applied on the 10th day after planting (DAP). However TSP and KCl which were common to all the treatments were applied on 10 DAP and 28 DAP. The plants were monitored until tassel stage. Tassel stage is the maximum growth stage for plants before they enter productive stage.
Harvesting was done on the 56th DAP. The whole plant including leaves and stem were harvested. The remaining roots in the soil were removed carefully. They were cleaned using tap and distilled water. The plant parts (leaves, stem and roots) were then oven-dried at 60° C. until constant weight was attained afterwhich they weighed using a digital balance. Soil samples were also taken from the pots, air-dried, pounded and sieved to a pass 2 mm before they were analyzed for pH, exchangeable cations (K, Mg, and Ca), total carbon, total N, available P, exchangeable ammonium and available nitrate, using standard procedures. Each plants part was ground and analyzed for total K, Mg, Ca, Na, N, and P.
Nitrogen, P and K uptake in leaves, stem and roots were determined by multiplying the concentration with the dry weight of the plant parts. Nitrogen, P and K use efficiency were determined by the formula of Pomares-Gracia and Pratt (1987).
Analysis of variance (ANOVA) was used to test the effect of treatments while means of treatments were compared using Duncan's Test. Statistical Analysis System (SAS Ver. 9.2) was used for the statistical analysis.

Series [2] is described as follows: Selected chemical properties of peat soil water and urea. Format: physicochemical. The following applies: glass electrode. As for the experimental part:
Peat soil water (waste water) was collected from natural flows of peat water at Suai Miri Sarawak, Malaysia. The mineral soil used was Bekenu Series (Fine loamy, siliceous, isohyperthermic, red-yellow to yellow Tipik Tualemkuts). It was sampled in an undisturbed area of Universiti Putra Malaysia Bintulu Sarawak Campus, Malaysia using an auger. The soil taken at 0-15 cm depth was air dried and ground to pass 2.0 mm sieve for laboratory experiment. The soil texture was determined using the hydrometer method (Bouyoucos, 1962) and its field capacity and bulk density determined by the method described by Tan (2005). The pH of the soil was determined in a 1:2 soil:distilled water suspension and KCl using a glass electrode. However, the pH of the peat soil water was determined directly from filtered samples using a glass electrode. The soil total carbon, N and organic matter were determined using LECO CHNS Analyzer (Leco Truspec Micro Elemental Analyzer CHNS, New York). Soil available P was extracted using the double acid method (Tan, 2005) followed by blue method (Murphy and Riley, 1962). The Kjedhal method was used to determine total N. Exchangeable cations were extracted using leaching method and their concentrations were afterwards determined using followed Atomic Absorption Spectrometry (AAS). Soil CEC was determined by the leaching method followed by steam distillation.

Marks after values point to notes of the source that are not given here.

`NC(N)=O` [Treatment T1, urea]: in series [1], the “dry weight of maize plant, Leaves” value is given as 6.00^b g plant^−1; the “dry weight of maize plant, Roots” value was 3.18^b g plant^−1; the “dry weight of maize plant, Stems” value is on record as 5.71^d g plant^−1; the “dry weight of maize plant, Total” value is listed as 14.89^b g plant^−1. Further, in series [1] (Leaves), the “K use efficiency of maize plant” value is listed as 1.17^a %, the “N use efficiency of maize plant” value is 1.26^a % and the “P use efficiency of maize plant” value is reported as 0.31^a %. Also, in series [1] (Roots), the “K use efficiency of maize plant” value is on record as 1.75^a %, the “N use efficiency of maize plant” value is reported as 0.37^a % and the “P use efficiency of maize plant” value was 0.40^a %. For the same compound, in series [1] (Stem), the “K use efficiency of maize plant” value was 2.17^a %, the “N use efficiency of maize plant” value was 0.24^d % and the “P use efficiency of maize plant” value is recorded as 0.32^a %. Also, in series [1] (Total), the “K use efficiency of maize plant” value is 5.09^a %, the “N use efficiency of maize plant” value is 1.87^a % and the “P use efficiency of maize plant” value was 1.03^a %. In series [2] (listed as Urea), the pHw was 8.00. Further, the pHw result in series [2] (listed as urea) was “basic”.
